In patent publication US9096591B2, “Tetracyclic compounds” (Medivation Technologies, Inc., priority 2007, dated 2015):
“And” between values parts separate entries of the source, which are not always exact repeats. Equal entries are not always repeated.

Key:
[1] = molecular target: human recombinant dopamine D2S receptor (Homo sapiens, UniProt P14416); test: Dopamine D2S antagonist activity ([35S]GTPγS binding, SPA); format: biochemical; settings: for Antagonist Activity As Measured by % Inhibition D2S / inhibition at 0.03 µM / inhibition at 0.1 µM / inhibition at 0.3 µM: two values = assay run twice; for inhibition at 0.03 µM / inhibition at 0.1 µM / inhibition at 0.3 µM / inhibition at 1 µM / inhibition at 3 µM: read-out: Antagonist Activity As Measured by % Inhibition D2S
Sequence of human recombinant dopamine D2S receptor (P14416 1-414 isoform P14416-2): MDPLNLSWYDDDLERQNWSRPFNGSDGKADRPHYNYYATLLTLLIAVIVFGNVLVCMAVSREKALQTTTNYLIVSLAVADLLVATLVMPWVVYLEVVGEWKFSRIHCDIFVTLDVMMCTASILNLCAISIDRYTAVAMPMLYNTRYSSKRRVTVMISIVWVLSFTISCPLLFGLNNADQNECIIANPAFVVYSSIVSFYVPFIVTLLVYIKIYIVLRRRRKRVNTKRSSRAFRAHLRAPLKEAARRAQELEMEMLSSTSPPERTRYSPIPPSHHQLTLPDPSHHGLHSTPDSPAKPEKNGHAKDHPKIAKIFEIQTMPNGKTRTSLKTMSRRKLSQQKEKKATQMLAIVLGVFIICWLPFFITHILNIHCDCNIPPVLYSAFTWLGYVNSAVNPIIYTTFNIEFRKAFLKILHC
Method: To determine for agonist or antagonist activity of compounds of the invention in functional assays, human recombinant dopamine D2S receptor stably expressed in Chinese hamster ovary (CHO) cells (Gilliland S L and Alper R H. Naunyn-Schmiedeberg's Archives of Pharmacology. 361: 498, 2000) was used. Compounds of invention were pre-incubated with the membranes (0.05 mg/ml) and 3 μM GDP in modified HEPES buffer (20 mM HEPES, pH 7.4, 100 mM NaCl, 10 mM MgCl2, 1 mM DTT, 1 mM EDTA) for 20 minutes and Scintillation Proximity Assay (SPA) beads were then added for another 60 minutes at 30° C. The reaction was initiated by 0.3 nM [^35S]GTPγS for an additional 30 minute incubation period. […] Compounds were screened at 3 μM or lower, using 0.4% DMSO as vehicle. Assay results are presented as the percent response of specific binding in Table 9.

[2] = molecular target: T1, human recombinant serotonin 5-HT2A receptor (Homo sapiens, UniProt P28223); test: Serotonin 5-HT2A agonist/antagonist functional assay (calcium fluorescence, HEK-293); format: cell-based; settings: antagonist mode
T1 construct: expressed in transfected cells; host or cells: HEK-293 cells
T1 sequence (P28223 whole entry): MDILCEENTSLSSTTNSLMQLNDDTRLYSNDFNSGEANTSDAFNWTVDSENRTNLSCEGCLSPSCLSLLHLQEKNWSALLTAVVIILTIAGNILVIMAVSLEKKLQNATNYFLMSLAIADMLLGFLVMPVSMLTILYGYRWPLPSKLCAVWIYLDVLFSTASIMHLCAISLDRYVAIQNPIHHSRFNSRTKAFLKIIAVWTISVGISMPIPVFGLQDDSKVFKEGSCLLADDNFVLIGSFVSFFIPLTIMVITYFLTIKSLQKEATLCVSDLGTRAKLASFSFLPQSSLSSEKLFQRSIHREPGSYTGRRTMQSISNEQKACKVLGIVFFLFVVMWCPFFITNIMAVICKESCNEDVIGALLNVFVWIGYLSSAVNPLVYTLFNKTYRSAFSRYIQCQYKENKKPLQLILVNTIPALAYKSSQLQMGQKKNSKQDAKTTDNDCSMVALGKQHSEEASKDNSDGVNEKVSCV
From the text: To determine for agonist or antagonist activity of compounds of the invention in functional assays, human recombinant serotonin 5-HT2A receptor expressed in human embryonic kidney (HEK-293) cells (Jerman J C, Brough S J, Gager T, Wood M, Coldwell M C, Smart D and Middlemiss D N. Eur J Pharmacol, 414: 23-30, 2001) was used. Cells were suspended in DMEM buffer, and distributed in microplates. A cytoplasmic calcium fluorescent indicator which varies proportionally to the free cytosolic Ca^2+ ion concentration was mixed with probenicid in HBSS buffer complemented with 20 mM Hepes (pH 7.4), added into each well and equilibrated with the cells for 30 min at 37° C. followed by 30 min at 22° C. […]
The standard reference antagonist was ketanserin, which was tested in each experiment at several concentrations to generate a concentration-response curve from which its IC50 value was calculated.

[3] = system: C57BL/6 mice; test: Recognition of a new location of the known object (spatial memory); format: in vivo
From the text: The object recognition test is based on the fact that mice and rats spontaneously explore new object or location of a known object a lot longer than the know object or a known location of an object. This test was first used in rats (Ennaceur A., Delacour J., 1988). It was further shown by others that this type of memory testing is suitable for mice (Dodart J. et al. 1997, Messier C. 1997, Pittenger C. et al., 2002, Ryabinin A. et al., 2002, Sargolini F. et al., 2003). The method of recognition of an object is divided in two stages. The first one involves the recognition of a new location of a known object, which is used to assess spatial memory. The second one includes a test for recognition of a new in order to evaluate the non-spatial memory (Gaffan D., 1992, Kolb B. et al., 1994, Steckler T., 1998). Currently, both are widely used to determine the effectiveness of newly synthesized drugs on memory.
All experiments were carried out on 3-4 months old males (C57BL/6 line) 22-26 g weight with 10 animals in each group. All animals were kept in the animal facility (5 animals per cage) on the 12×12 hours light cycle (8 am-8 pm) with free access to food and water. […] Brown glass vials were used as test objects which are 2.7 cm in diameter (1.1 inch) and 5.5 cm high (2.2 inch). All vials were treated with 85% ethanol 2-3 minutes before each testing. Animals were placed in the center of the chamber.
Dimebon and compounds of the invention were dissolved in distilled water and administered orally at 0.05 mL per 10 g of animal mass 1 hour before the training exercise. All animals in the control group were treated with the equivalent dose of vehicle. The testing was performed 48 hours after the training exercise because animals forget the location of the object during the 48-hour resting time.
On the first day animals were brought in the testing room so that they could adapt to the testing environment for 20-30 min. Subsequently, each animal was placed in the empty testing chamber for 10 min, which was wiped with alcohol beforehand. After that animals were transferred back into the […] and returned to the animal facility.
The next day after habituation, the animals were brought back into the testing room where they were weighed and injected with the testing compound. An hour after injection, each animal was placed into the testing camber which had two identical objects that were positioned 14.5 cm (5.7 inches) from the corners on the diagonal. The training exercise lasted for 15 min for each animal. Subsequently, each animal was placed back into the cage and returned into the animal house.
The testing procedure was performed 48 hours after the training exercise. During the procedure two objects were used as in the training exercise. […] The amount of time that each animal spent on exploration each object was determined with 0.1 sec accuracy using two electronic stopwatches for total of 10 min. […] The survey of the object was counted as positive if the nose of an animal was pointed within 2 cm or if the animal was touching the objected directly with the nose.
Due to fair differences in the amount of time that each animal surveyed the object, the percentage of the survey time for each animal was determined using this formula: tNL/(tFL+tNL)×100 (where t is time, NL—new location(object), and FL—familiar location(object)). […] Subsequently, the statistical significance was analyzed using a Student's t-test criteria.

| SMILES | Antagonist Activity As Measured by % Inhibition D2S ([1]; 0.03 uM) [%] | inhibition at 0.03 µM ([1]; 0.03 uM) [%] | inhibition at 0.1 µM ([1]; 0.1 uM) [%] | Antagonist Activity As Measured by % Inhibition D2S ([1]; 0.3 uM) [%] | inhibition at 0.3 µM ([1]; 0.3 uM) [%] | inhibition at 1 µM [1] [%] | inhibition at 3 µM [1] [%] | % of Control Agonist Response, 1st Assay ([2]; test concentration 1.00E−07 M) | % of Control Agonist Response, 2nd Assay ([2]; test concentration 1.00E−07 M) | % of Control Agonist Response, Mean ([2]; test concentration 1.00E−07 M) | % of Control Agonist Response, Mean ([2]; test concentration 3.00E−06 M) | % of Control Agonist Response, 2nd Assay ([2]; test concentration 3.00E−07 M) | % of Control Agonist Response, 1st Assay ([2]; test concentration 3.00E−08 M) | % of Control Agonist Response, 2nd Assay ([2]; test concentration 3.00E−08 M) | % of Control Agonist Response, Mean ([2]; test concentration 3.00E−08 M) | also measured |
| --- | --- | --- | --- | --- | --- | --- | --- | --- | --- | --- | --- | --- | --- | --- | --- | --- |
| COc1ccc(CCn2c3c(c4cc(C)ccc42)CN(C)CC3)cc1 [Compound 247] | 68 | 67 | 97 | 93 | 81 | 110 | 108 | 117% and 93% | 116% and 94% and 95% | 116.5% and 93.5% and 93.9% | −3.2% | 76% and 72% and 38% | 122% and 103% | 120% and 108% and 111% | 121.3% and 104.5% and 107% | Antagonist Activity As Measured by % Inhibition D2S ([1]; 0.1 uM): 89%; % of Control Agonist Response, 1st Assay ([2]; test concentration 1.00E−06 M): −4% and −2% and 2%; % of Control Agonist Response, 2nd Assay ([2]; test concentration 1.00E−06 M): 0% and 3%; % of Control Agonist Response, Mean ([2]; test concentration 1.00E−06 M): −1.7% and 0.3% and 0.7%; % of Control Agonist Response, 1st Assay ([2]; test concentration 3.00E−06 M): −4%; % of Control Agonist Response, 2nd Assay ([2]; test concentration 3.00E−06 M): −3% |
| CN1CCc2c(c3cc(Cl)ccc3n2CCc2ccccc2)C1 [Compound 36, 8-chloro-2,3,4,5-tetrahydro-2-methyl-5-phenethyl-1H-pyrido[4,3-b]indole] | 85 | 76 | 97 | 104 | 98 | 102 | 107 | 111% and 100% and 105% | 102% and 106% and 115% | 106.4% and 103% and 109.9% | 5.3% and 9.7% and 0.4% | 105% and 98% and 97% | 109% | 108% | 108.7% | % of Control Agonist Response, 1st Assay ([2]; test concentration 3.00E−07 M): 92% and 109%; % of Control Agonist Response, Mean ([2]; test concentration 3.00E−07 M): 98.8% and 94.8% and 102.8% |
| CN1CCc2c(c3ccccc3n2CCc2noc(-c3ccccc3)n2)C1 [Compound C4-1] |  |  |  |  |  |  |  |  |  |  |  |  |  |  |  | effect on memory in the recognition test of a known object in a new location ([3]; 0.05 mg/kg, 0.5 mg/kg, and 1 mg/kg): not significantly different from the control group; time exploring the object in a new location, % of the total time ([3]; 0.1 mg/kg): 61.3±6.9%; time exploring the object in the known position, % of the total time ([3]; 0.1 mg/kg): 38.7±6.9% |
